Measured values: US9901591B2, “Paeoniflorin preparations and uses thereof for fat reduction” (priority 2008, dated 2018)
Where “and” joins values, the source holds several entries; their conditions need not be identical. Identical values can stand only once.

Assays:
[1] = Fat reduction with PF/azone creme and low current in patients; format: in vivo, human
Protocol: Concentration of PF included into the topical preparation: 0.2 mg to 0.3 mg of PF were dissolved in 1 ml of azone liquid.
A low current of […] is then passed through pads placed on the skin of the desired treatment area which then drives the PF through the skin into the adipose tissues, thus allowing the PF to come in contact with the fat cells.
The present preparations may be provided in the form of a creme containing 1 ml of PF at a concentration of 1 mmol mixed with 1 ml of azone which is then massaged into the target area. Azone has been extensively studied using a range of permeants. […] This process leads to increased lipid fluidity and enhanced drug diffusion. This is the reason PF was mixed with azone. Furthermore, a low current is then passed through the tissue area, which then drives the PF through the skin into the adipose tissues. PF may in this way come in contact with fat cells. The clinical results are show below and the details of each patient is documented.

[2] = Blood indices before and after PF treatment in patients; format: in vivo, human
Protocol: Eight patients were treated with PF. The levels of three indices such as serum cholesterol, LDL Cholesterol, serum triglycerides in blood were tested before and after treatment.

[3] = Targeted fat reduction with injectable PF preparation in patients; format: in vivo, human
Protocol: 1 ml of PF (1) at a concentration of 1 mol is mixed with 4 ml injectable water and 5 ml (phosphatidyl choline (PPC)) prepared from soya bean extract and 5 ml 2% lidocaine. A total of 15 ml solution. This solution is mixed together in a 20 ml syringe and the needle is changed to a small insulin needle Gauge 30×½ as shown therein before the actual injections are given. The solution is then given subcutaneously directly into the fat areas at a dose of 0.5 ml per site totaling 20 injections. These injections are spread out to cover a big surface area, e.g. could be spread out through a whole midsection (“love handle”) in case of a larger patient, or if the patient were an average size it could be spread out to cover right and left love handles in one session. For reference, please refer to the patients injected in the thigh and buttocks area, for explanation. This patient was injected with 30 smaller injections of 0.2 ml per site, and they were spread through out the whole outer and inner thigh and buttocks areas on the right side. 0.5 mg of PF was dissolved in 5 ml of injectable water rendering a concentration of 0.1 mg/ml. This was then mixed with 5 ml of Phosphatidyl Choline in a 20 ml syringe. The large gauge needle was then replaced with a smaller gauge (Gauge 27-30, in some embodiments, a 30 gauge×½) insulin needle and the 10 ml was injected into 20 different sites of a given area. 0.5 ml of the solution was injected into the stomach, with about 1 cm separating each injection site.

3T3-L1 adipocytes = assay: Glycerol release from differentiated 3T3-L1 adipocytes (adipolysis); format: cell-based, mouse; details: 1 umol/L PF vs media without PF, 7th day
Excerpt: The 3T3-L1 cell line is an accepted model by those of skill in the art for natural fat loss. This cell line is a substrain of Swiss 3T3 mouse cell line 3T3-L1. This cell line propagated under normal conditions has a fibroblastic phenotype. However, when treated with a combination of dexamethasone, isobutylmethylxanthine (a non-specific inhibitor of phosphodiesterases) (IBMX) and insulin, 3T3 cells adopt a rounded phenotype and accumulate lipids intracellularly in the form of fat droplets. Differentiated 3T3-L1 adipocytes were cultured in media containing 1 umol/L PF as test group, and media without PF as control. As a result of lipolysis activity, glycerol will be generated as a result of triglyceride breakdown and released into the extracellular space. Glycerol content from 3T3-L1 adipocyte cell culture media may therefore provide an indicator of adipolysis.

Adra2b = assay: Oligo GEArray microarray of obesity-related genes in 3T3-L1 adipocytes; format: cell-based, mouse; details: for Ratio of expression signals of Adra2b compared to control: 3T3-L1 adipocytes, 1 umol/L PF, control = 1
Protocol: (§1) 3T3-L1 adipocytes were cultured in medium containing 1 umol/L PF as test group and medium only as control. Total RNA was extracted and Oligo GEArray was tested using Superarray OMM-17. The GEArray includes 111 obesity-related genes that are directly involved in the regulation of energy intake and expenditure. The genes included orexigenic peptides, hormones, and receptors, anorectic peptides, hormones, receptors, and central and peripheral signaling molecules involved in energy expenditure. The increase changes or decrease changes of more than 1.5 fold are regarded meaningful according to the diagnosis discipline, as described in the insert literature of a metabolic disease/obesity gene panel product purchased from Superarray Bioscience Corporation. (Frederick, Md.). […] In the graphs, the data above the upper line and the data below the lower line show a significant change of gene expression.

[4] = tested on: Peroxisome proliferators activated receptor gamma (Pparg); assay: as above; format: cell-based, mouse; details: for Ratio of expression signals of Pparg compared to control: 1 umol/L PF, control = 1
Protocol: as §1

[5] = tested on: β1-adrenergic receptor (Adrb1); assay: as above; format: cell-based, mouse; details: for Ratio of expression signals of Adrb1 compared to control: 3T3-L1 adipocytes, 1 umol/L PF, control = 1
Protocol: as §1

Adrb3 = assay: as above; format: cell-based, mouse; details: for Ratio of expression signals of Adrb3 compared to control: 1 umol/L PF, control = 1
Protocol: as §1

Adrb2 = assay: as above; format: cell-based, mouse; details: for Ratio of expression signals of Adrb2 compared to control: 1 umol/L PF, control = 1
Protocol: as §1

[6] = tested on: Adiponectin receptor 1 (Adipor1); assay: as above; format: cell-based, mouse; details: for Ratio of expression signals of Adipor1 compared to control: 1 umol/L PF, control = 1
Protocol: as §1

[7] = per patient, number of times as in table

C[C@@]12C[C@@]3(O)O[C@@H](O1)[C@]1(COC(=O)c4ccccc4)[C@H]3C[C@@]12O[C@@H]1O[C@H](CO)[C@@H](O)[C@H](O)[C@H]1O [PF, paeoniflorin]
AMOUNT OF REDUCTION IN CM, each side of the upper thigh ([1]; patient #3, 6 times): 2 cm from each side of the upper
AMOUNT OF REDUCTION IN CM, left buttock ([1]; patient #4, 7 times): 9 cm from the left buttock
AMOUNT OF REDUCTION IN CM, right buttock ([1]; patient #4, 7 times): 8 cm from the right buttock &
AMOUNT OF REDUCTION IN CM, each leg below the knees ([1]; patient #5, 8 times): 9 cm and 10 cm
AMOUNT OF REDUCTION IN CM, left thigh ([1]; patient #7, 9 times): 6 cm
AMOUNT OF REDUCTION IN CM, right thigh ([1]; patient #7, 9 times): 8 cm
AMOUNT OF REDUCTION, bra size ([1]; patient #8, 30 times): 1.5 size in bra size
AMOUNT OF REDUCTION IN CM, love handles ([1]; patient #12, 8 times): 10 cm from love handles and
AMOUNT OF REDUCTION IN CM, above and below the umbilicus [1, 7]: 3.5 cm above and below the
AMOUNT OF REDUCTION IN CM, above the umbilicus [1, 7]: 7 cm and 6 cm and 10 cm above the umbilicus, and 9 cm above the umbilicus. 9 cm
AMOUNT OF REDUCTION IN CM, below the umbilicus [1, 7]: 9 cm and 9.5 cm below the umbilicus and 6 cm below the umbilicus
AMOUNT OF REDUCTION IN CM, midsection [1, 7]: 10 cm and 5 cm from the waist and 5 cm and 9 cm above the umbilicus. 9 cm
Serum Triglycerides Post-tx, Ave ([2]; average of eight patients, Pre-tx Ave 79.38, P 0.462, NR: 35-160): 72.50 mg/dL
LDL Cholesterol Post-tx, Ave ([2]; average of eight patients, Pre-tx Ave 122.81, P 0.452, NR: 60-150): 112.69 mg/dL
Serum Cholesterol Post-tx, Ave ([2]; average of eight patients, Pre-tx Ave 202.88, P 0.002, NR: 50-200): 172.75 mg/dL
Serum cholesterol, LDL Cholesterol, serum triglycerides in blood, change after treatment ([2]; eight patients, before vs after treatment): reduced after PF treatment
Serum Triglycerides Post-tx ([2]; individual cases 1-8, after PF treatment, NR: 35-160): 60 mg/dL and 59 mg/dL and 67 mg/dL and 71 mg/dL and 110 mg/dL and 55 mg/dL and 85 mg/dL and 73 mg/dL
Serum Cholesterol Post-tx ([2]; individual cases 1-8, after PF treatment, NR: 50-200): 135 mg/dL and 151 mg/dL and 222 mg/dL and 168 mg/dL and 237 mg/dL and 150 mg/dL and 148 mg/dL and 171 mg/dL
LDL Cholesterol Post-tx ([2]; individual cases 1-8, after PF treatment, NR: 60-150): 75 mg/dL and 92 mg/dL and 146 mg/dL and 108 mg/dL and 176.5 mg/dL and 98 mg/dL and 93 mg/dL and 113 mg/dL
weight loss ([3]; 2 sessions together with an aerobic instructor, in 2 weeks): over 3 pounds
Size at End of Treatment, stomach area ([3]; Patient 1, 6 weeks/11 sessions, size before start 90 cm): 83 cm
Size at End of Tx, stomach area ([3]; Patient 2, 5 weeks/9 sessions, size before start 96 cm): 90 cm
Size at End, both upper arms ([3]; Patient 3, 1 month/8 sessions (4 per side), size before start 40 cm): 36.5 cm
fat loss ([3]; each 10 sessions): about 7 cm
fat loss ([3]; in 5 sessions of 20 injections of 0.5 ml): 3 cm
sessions until a noticeable difference was seen ([3]; on average, sessions of 20 injections): 4-5 sessions
fat loss ([3]; one patient, 10 sessions over about 6 weeks): more than 5 inches
sessions per 1 cm of fat dissolved ([3]; stomach and thigh areas, human): 1-1.5 sessions
fat dissolved per session ([3]; upper arms areas, human): about 1 cm
fat lost ([3]; with 10 sessions): over 5 pounds
release of glycerol (3T3-L1 adipocytes): increased the release of glycerol significantly
effect on expression of Adra2b (Adra2b; 3T3-L1 adipocytes exposed to PF, whole study): no effect on Adra2b
Ratio of expression signals of Adra2b compared to control (Adra2b; 3 days): 0.92
Ratio of expression signals of Adra2b compared to control (Adra2b; 6 days): 1.44
Ratio of expression signals of Adra2b compared to control (Adra2b; 7 days): 1.27
Ratio of expression signals of Pparg compared to control ([4]; 3 days): 0.91
Ratio of expression signals of Pparg compared to control ([4]; 6 days): 1.09
Ratio of expression signals of Pparg compared to control ([4]; 7 days): 0.64
reduction of the level of expression of Pparg ([4]; day 7 of exposure to PF): 1.54 fold
effect on expression of Adrb1 ([5]; 3T3-L1 adipocytes exposed to PF): significant increase
Ratio of expression signals of Adrb1 compared to control ([5]; 3 days): 3.39
Ratio of expression signals of Adrb1 compared to control ([5]; 6 days): 0.8
Ratio of expression signals of Adrb1 compared to control ([5]; 7 days): 0.58
Ratio of expression signals of Adrb3 compared to control (Adrb3; 3 days): 1.56
Ratio of expression signals of Adrb3 compared to control (Adrb3; 6 days): 3.18
Ratio of expression signals of Adrb3 compared to control (Adrb3; 7 days): 5.65
increase of Adrb3 expression (Adrb3; 7 days post exposure to PF): 5.65 fold
Ratio of expression signals of Adrb2 compared to control (Adrb2; 3 days): 0.74
Ratio of expression signals of Adrb2 compared to control (Adrb2; 6 days): 1.96
Ratio of expression signals of Adrb2 compared to control (Adrb2; 7 days): 7.40
increase of Adrb2 expression (Adrb2; 7 days post exposure to PF): 7.4 fold
Ratio of expression signals of Adipor1 compared to control ([6]; 3 days): 0.68
Ratio of expression signals of Adipor1 compared to control ([6]; 6 days): 1.21
Ratio of expression signals of Adipor1 compared to control ([6]; 7 days): 1.86
increase of Adipor1 expression ([6]; day 7 of exposure to PF): 1.86 fold
